Laboratory results: PubChem BioAssay AID1963827 (Molecular Pharmacology Branch, DTP, NCI, 2024)
Where “and” joins values, the source holds several entries; their conditions need not be identical. Equal entries are not always repeated.

System: 994946-033-R-J1-PDC complex spheroid viability
Experiment: Anticancer human tumor 994946-033-R-J1-PDC patient-derived melanoma cell line growth inhibition [POLQ]
Details: for viability, T/C: stronger effect = lower value; for IC50: curve of compound
Experimental: Multicellular complex tumor spheroid response to Polymerase (POL) inhibitors (novobiocin, ART-558, RP6685) in combination with a variety of drugs and investigational agents in selected tumor cell lines
The POL inhibitors (novobiocin, ART-558, and RP6685) were evaluated both individually and in combination with standard of care and investigational anticancer small molecules within a complex spheroid model of solid tumors. . Complex spheroids include a stromal component modeled by human endothelial cells (HUVEC) and fibroblasts modeled by human mesenchymal stem cells (MSCs). The concentration ranges selected for each drug and investigational agent were based upon clinically achievable concentrations if the clinical Cmax of the agent was known.
Compounds. The drugs and investigational agents: novobiocin (NSC847541), ART-558 (NSC835418), RP-6685 (NSC848927), peposertib (NSC802822), ceralasertib (NSC780249), elimusertib (NSC800525), camonsertib (NSC841442), AZD-1390 (NSC803789), olaparib (NSC753686), talazoparib (NSC767125), rucaparib (NSC756644), sotorasib (NSC818433), MRTX-1133 (NSC836407), SN-38 (NSC673596), topotecan (NSC609699), epotoside (NSC141540), doxorubicin (NSC123127), gemcitabine (NSC613327), 5-fluorouracil (NSC19893), paclitaxel (NSC125973), vemurafenib (NSC761431), MSA-2 (NSC828583), SN-011 (NSC837082), adavosertib (NSC754352), prexasertib (NSC758257), carboplatin (NSC241240) and oxaliplatin (NSC266046), were obtained from the National Cancer Institute (NCI) Developmental Therapeutics Program Chemical Repository (21). The FDA-approved anticancer drug set is available from the Developmental Therapeutics Program at https://dtp.cancer.gov/organization/dscb/obtaining/. […] The stock solutions were prepared in dimethyl sulfoxide (DMSO, Sigma-Aldrich, St. Louis, MO, cat. D2650), except for the platinum compounds which were prepared in saline (Quality Biological, Gaithersburg, MD, cat. 114-055-101), at 800-fold the tested concentration and stored at -70 degrees C prior to their use. All drugs and investigational agents were tested over a range starting from a high concentration at or near the clinical Cmax and decreasing in half-log increments. If the clinical Cmax for an agent had not been determined, the highest concentration tested was 10 microM, except for SN-38, which was tested at a high concentration of 1 microM.
Cell Culture. All cells were maintained in an incubator at 37 degrees C and 5% CO2 with 95% humidity. The PDC lines were cultured according to standard operating procedures established by the NCI PDMR (https://pdmr.cancer.gov). Table 3 of the manuscript, lists the cell lines along with the number of the three cell types plated to form the mct-spheroids and media for tumor cell growth. After thawing, all PDC lines, except 997537-175-T-J1-PDC and 415267-285-R-J2-PDC, were cultured in Matrigel-coated flasks prepared with a working solution of 1X Ham's F-12 nutrient mix, without supplementation (Thermo Fisher Scientific, cat. 11765054), 100 U/mL penicillin-streptomycin (Thermo Fisher Scientific, cat. 15140122), and 2.5% Matrigel (Corning Inc., Corning, NY, cat. 354248) for the first three passages. The two PDC lines 997537-175-T-J1-PDC and 415267-285-R-J2-PDC were cultured on uncoated flasks. The 857933-349-R-J2-PDC line was cultured in 6C/Colon 1B media containing advanced DMEM/F-12 (Thermo Fisher Scientific, cat. 12634028), 10 mM HEPES (Thermo Fisher Scientific, cat. 15630080), 1X GlutaMAX supplement (Thermo Fisher Scientific, cat. 35050061), 0.1 mg/mL primocin (InvivoGen, San Diego, CA, cat. ant-pm-2), 10% defined fetal bovine serum, heat inactivated (HyClone Laboratories Inc., Logan, UT, cat. SH30070.03HI), 50% L-WRN conditioned media (ATCC, cat. CRL-3276), 1.25 mM N-Acetyl-L-cysteine (Sigma-Aldrich, cat. A9165), 10 mM nicotinamide (Sigma-Aldrich, cat. N0636), 1X B-27 supplement (Thermo Fisher Scientific, cat. 17504044), 1X N-2 supplement (Thermo Fisher Scientific, cat. […]
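Note: spheroids exposed to drugs for 7 days.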
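Throughout, for viability, T/C: 100% = DMSO vehicle treated spheroids.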

Compound	viability, T/C (compound 0.0316 µM)	viability, T/C (compound 0.1 µM)	viability, T/C (compound 0.316 µM)	viability, T/C (compound 1 µM)	viability, T/C (compound 3.16 µM)	viability, T/C (compound 10 µM)	IC50	viability, T/C (compound 0.00316 µM)	viability, T/C (compound 0.01 µM)	viability, T/C (compound 0.00949 µM)	viability, T/C (compound 0.03 µM)	viability, T/C (compound 0.0949 µM)	viability, T/C (compound 0.3 µM)	viability, T/C (compound 0.949 µM)	viability, T/C (compound 3 µM)	viability, T/C (compound 0.000316 µM)	viability, T/C (compound 0.001 µM)
C#Cc1c(F)ccc2cc(O)cc(-c3ncc4c(N5CC6CCC(C5)N6)nc(OCC56CCCN5CC(F)C6)nc4c3F)c12 (centres undefined)	78.6% and 88.4% and 92.6%	114% and 85.9% and 77.6%	100% and 90.5% and 92%	85.9% and 83.8% and 79.2%	77.8% and 81.5% and 90.7%	12.6% and 21.5% and 6.41%	5.08 µM and 5.79 µM and 5.34 µM	–	–	–	–	–	–	–	–	–	–
C=CC(=O)N1CCN(c2nc(=O)n(-c3c(C)ccnc3C(C)C)c3nc(-c4c(O)cccc4F)c(F)cc23)C(C)C1 (centres undefined)	127% and 82.1% and 87.4%	72.6% and 95.5% and 105%	121% and 63.8% and 132%	101% and 104% and 100%	102% and 93.9% and 110%	120% and 102% and 100%	> 10 µM	–	–	–	–	–	–	–	–	–	–
C=CCn1c(=O)c2cnc(Nc3ccc(N4CCN(C)CC4)cc3)nc2n1-c1cccc(C(C)(C)O)n1	113% and 106% and 123%	105% and 97.1% and 72.5%	97.5% and 68.8% and 88.4%	27.4% and 34.9% and 30.9%	–	–	0.691 µM and 0.608 µM and 0.651 µM	106% and 121% and 99.1%	109% and 114% and 99.8%	–	–	–	–	–	–	–	–
CC(=O)O[C@H]1C(=O)[C@@]2(C)[C@H]([C@H](OC(=O)c3ccccc3)[C@]3(O)C[C@H](OC(=O)[C@H](O)[C@@H](NC(=O)c4ccccc4)c4ccccc4)C(C)=C1C3(C)C)[C@]1(OC(C)=O)CO[C@@H]1C[C@@H]2O	–	–	–	–	–	–	< 0.00949 µM	–	–	24.4% and 24.8% and 18.7%	21.9% and 23.1% and 18.1%	18.5% and 17.9% (2×)	17.7% and 11.9% and 15.6%	18.8% and 15.4% and 12.7%	11.4% and 13% and 9.5%	–	–
CC(C)n1c(=O)n(C)c2cnc3cc(F)c(-c4ccc(OCCCN5CCCCC5)nc4)cc3c21	95.4% and 78.5% and 82.5%	86.1% and 90.5% and 82.5%	93.8% and 117% and 70.9%	86.5% and 77.2% and 84.3%	56.9% and 68.1% and 62.2%	21.2% and 41.8% and 25.7%	3.94 µM and 6.87 µM and 4.65 µM	–	–	–	–	–	–	–	–	–	–
CC1COCCN1c1cc(-c2ccnn2C)c2ccnc(-c3ccn[nH]3)c2n1 (centres undefined)	68% and 74.9% and 58.3%	37.9% and 28.1% (2×)	24.9% and 25.2% and 20.4%	17.2% and 25.2% and 29.2%	15.5% and 20.5% and 13.3%	10.3% and 16% and 14.4%	0.064 µM and 0.0587 µM and 0.0437 µM	–	–	–	–	–	–	–	–	–	–
CC1COCCN1c1cc(C2(O)CC3CCC(C2)O3)c2cnn(-c3ccn[nH]3)c2n1 (centres undefined)	38.3% and 52.8% and 44.6%	16.8% and 26.7% and 40.6%	18.2% and 26.2% and 20%	23.1% and 20.1% and 17.9%	9.3% and 14.8% and 12%	6.01% and 4.54% and 7.55%	< 0.0316 µM	–	–	–	–	–	–	–	–	–	–
CC1COCCN1c1cc(C2(S(C)(=N)=O)CC2)nc(-c2ccnc3[nH]ccc23)n1 (centres undefined)	106% and 105% and 113%	112% and 97.5% and 98.7%	90.5% and 86.8% and 93.9%	70.6% and 57.9% and 68.7%	42% and 44.5% and 52%	56.6% and 52.9% and 32.3%	8.06 µM and 2.89 µM and 3.41 µM	–	–	–	–	–	–	–	–	–	–
CCCS(=O)(=O)Nc1ccc(F)c(C(=O)c2c[nH]c3ncc(-c4ccc(Cl)cc4)cc23)c1F	77.1% and 111% and 98.1%	88.1% and 101% and 79.8%	101% and 93.3% and 103%	123% and 91.3% and 106%	93.8% and 70.6% and 69.6%	15.7% and 25% and 19.7%	6.05 µM and 5.24 µM and 4.97 µM	–	–	–	–	–	–	–	–	–	–
CC[C@@]1(O)C(=O)OCc2c1cc1n(c2=O)Cc2cc3c(CN(C)C)c(O)ccc3nc2-1	28% and 52% and 41.7%	13.2% and 9.44% and 10.1%	–	–	–	–	0.0176 µM and 0.0328 µM and 0.0221 µM	86.5% and 108% and 111%	71.5% and 74% and 68.2%	–	–	–	–	–	–	86.1% and 53.9% and 105%	101% and 95.2% and 87.8%
CCc1c2c(nc3ccc(O)cc13)-c1cc3c(c(=O)n1C2)COC(=O)[C@]3(O)CC	5.85% and 6.99% and 4.96%	3.9% and 5.58% and 5.13%	3.05% and 4.94% and 3.67%	1.76% and 2.96% and 1.2%	–	–	< 0.00316 µM	17% and 30.3% and 19.5%	6.95% and 12.2% and 10.6%	–	–	–	–	–	–	–	–
CCc1cc2c(N3CCc4c(cc(Cn5ccnc5)cc4-c4cn(C)nc4C(F)(F)F)C3=O)cc(C)nc2c(OC)n1	79% and 66% and 74.7%	78.9% and 75.4% and 75.9%	90.3% and 75% and 87.3%	93.3% and 71.1% and 84.3%	74.8% and 70.8% and 89.7%	72% and 68.3% and 85.2%	> 10 µM	–	–	–	–	–	–	–	–	–	–
